Data reported in the supplement of paper PMC9663587.

Assays:
Assay in all cases: area over the GR curve, 72 h; higher = more effect;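 also: Dye Drop or Deep Dye Drop imaging of viable cells in 384-well plates (Hoechst nuclei, LIVE/DEAD dye), nine half-log doses, GR normalized to DMSO controls and time-zero plates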
PDX1258 = tested on: PDX1258
HTERT_HME1 = tested on: HTERT_HME1
PDX1328 = tested on: PDX1328
CAL851 = tested on: CAL851
HCC1395 = tested on: HCC1395
HCC1569 = tested on: HCC1569
HCC1419 = tested on: HCC1419
HCC202 = tested on: HCC202
MCF7 = tested on: MCF7
SUM229PE = tested on: SUM229PE
HCC1143 = tested on: HCC1143

Row | SMILES | area over the GR curve (PDX1258) | area over the GR curve (HTERT_HME1) | area over the GR curve (PDX1328) | area over the GR curve (CAL851) | area over the GR curve (HCC1395) | area over the GR curve (HCC1569) | area over the GR curve (HCC1419) | area over the GR curve (HCC202) | area over the GR curve (MCF7) | area over the GR curve (SUM229PE) | area over the GR curve (HCC1143) | area over the GR curve (PDX1258; main component drawn) | area over the GR curve (HTERT_HME1; main component drawn) | area over the GR curve (PDX1328; main component drawn) | area over the GR curve (CAL851; main component drawn) | area over the GR curve (HCC1395; main component drawn) | area over the GR curve (HCC1419; main component drawn) | area over the GR curve (MCF7; main component drawn) | area over the GR curve (HCC1143; main component drawn)
1 | Cc1nc(NC(=O)N2CCC[C@H]2C(N)=O)sc1-c1ccnc(C(C)(C)C(F)(F)F)c1 [Alpelisib/BYL719] (max 10 µM) | 0.0534 GR | 0.112 GR | 0.241 GR | 0.194 GR | 0.023 GR | 0.0913 GR | 0.356 GR | 0.351 GR | 0.326 GR | 0.128 GR | 0.174 GR |  |  |  |  |  |  |  | 
2 | CN(C)C/C=C/C(=O)Nc1ccc(O[C@@H]2CCC[C@@H](Nc3ncc(Cl)c(-c4c[nH]c5ccccc45)n3)C2)cc1 [BSJ-01-175] (max 10 µM) | 1.3 GR | 0.955 GR | 0.898 GR | 0.822 GR | 1.01 GR | 0.907 GR | 0.39 GR | 0.685 GR | 1.19 GR | 0.745 GR | 0.684 GR |  |  |  |  |  |  |  | 
3 | CC(=O)c1c(C)c2cnc(Nc3ccc(N4CCN(CCOCCOCCOCCNC(=O)COc5cccc6c5C(=O)N(C5CCC(=O)NC5=O)C6=O)CC4)cn3)nc2n(C2CCCC2)c1=O (stereo not drawn) [BSJ-03-123] (max 10 µM) | 0.0283 GR | 0.422 GR | 0.31 GR | 0.405 GR | 0.323 GR | 0.183 GR | 0.415 GR | 0.221 GR | 0.306 GR | 0.286 GR | 0.265 GR |  |  |  |  |  |  |  | 
4 | CC(C)Nc1cc(-c2c[nH]c(C(=O)N[C@H](CO)c3cccc(Cl)c3)c2)c(Cl)cn1 [BVD523] (max 10 µM) | 0.149 GR | 0.443 GR | 0.102 GR | 0.2 GR | 0.259 GR | -0.026 GR | 0.0554 GR | 0.174 GR | 0.192 GR | 0.279 GR | 0.27 GR |  |  |  |  |  |  |  | 
5 | Cc1c(N)nc([C@H](CC(N)=O)NC[C@H](N)C(N)=O)nc1C(=O)N[C@H](C(=O)N[C@H](C)[C@@H](O)[C@H](C)C(=O)N[C@H](C(=O)NCCc1nc(-c2nc(C(=O)NCCC[S+](C)C)cs2)cs1)[C@@H](C)O)[C@@H](OC1OC(CO)C(O)C(O)C1OC1OC(CO)C(O)C(OC(N)=O)C1O)c1cnc[nH]1 (stereo partly drawn) [Bleomycin] (max 10 µM) |  |  |  |  |  |  |  |  |  |  |  | 0.295 GR | 0.48 GR | 0.199 GR | 0.385 GR | 0.607 GR | 0.141 GR | 0.555 GR | 0.658 GR
6 | Nc1cc(C(F)(F)F)c(-c2cc(N3CCOCC3)nc(N3CCOCC3)n2)cn1 [Buparlisib/NVP-BKM120] (max 10 µM) | 0.245 GR | 0.243 GR | 0.395 GR | 0.442 GR | 0.308 GR | 0.298 GR | 0.45 GR | 0.371 GR | 0.503 GR | 0.279 GR | 0.392 GR |  |  |  |  |  |  |  | 
7 | COc1cc2nccc(Oc3ccc(NC(=O)C4(C(=O)Nc5ccc(F)cc5)CC4)cc3)c2cc1OC [Cabozantinib] (max 10 µM) | 0.0204 GR | 0.0866 GR | 0.0918 GR | 0.123 GR | 0.0651 GR | 0.0157 GR | -0.0617 GR | -0.0223 GR | 0.107 GR | 0.0356 GR | 0.102 GR |  |  |  |  |  |  |  | 
8 | COc1cc2c(Oc3ccc4[nH]c(C)cc4c3F)ncnc2cc1OCCCN1CCCC1 [Cediranib/AZD2171] (max 10 µM) | 0.0493 GR | -0.0207 GR | 0.162 GR | 0.179 GR | 0.223 GR | -0.0292 GR | 0.0482 GR | 0.0677 GR | 0.0756 GR | 0.0369 GR | 0.165 GR |  |  |  |  |  |  |  | 
9 | Cc1cc(Nc2ncc(Cl)c(Nc3ccccc3S(=O)(=O)C(C)C)n2)c(OC(C)C)cc1C1CCNCC1 [Ceritinib/LDK378] (max 10 µM) | 0.199 GR | 0.286 GR | 0.416 GR | 0.372 GR | 0.215 GR | 0.124 GR | 0.206 GR | 0.119 GR | 0.457 GR | 0.0779 GR | 0.285 GR |  |  |  |  |  |  |  | 
10 | N.N.[Cl][Pt][Cl] [Cisplatin] (max 10 µM) | 0.155 GR | 0.297 GR | 0.287 GR | 0.221 GR | 0.386 GR |  | 0.223 GR |  | 0.0631 GR |  | 0.303 GR |  |  |  |  |  |  |  | 
11 | Cc1nc(Nc2ncc(C(=O)Nc3c(C)cccc3Cl)s2)cc(N2CCN(CCO)CC2)n1 [Dasatinib] (max 10 µM) | 0.714 GR | 0.415 GR | 0.819 GR | 0.57 GR | 0.598 GR | 0.483 GR | 0.311 GR | 0.779 GR | 0.483 GR | 0.529 GR | 0.447 GR |  |  |  |  |  |  |  | 
12 | COc1cccc2c1C(=O)c1c(O)c3c(c(O)c1C2=O)C[C@@](O)(C(=O)CO)C[C@@H]3O[C@H]1C[C@H](N)[C@H](O)[C@H](C)O1 [Doxorubicin] (max 3.162 µM) | 0.754 GR | 0.836 GR | 0.637 GR | 0.848 GR | 0.637 GR | 0.492 GR | 0.59 GR | 0.358 GR | 0.636 GR | 0.453 GR | 0.718 GR |  |  |  |  |  |  |  | 
13 | CO[C@H]1C[C@@H]2CC[C@@H](C)[C@@](O)(O2)C(=O)C(=O)N2CCCC[C@H]2C(=O)O[C@H]([C@H](C)C[C@@H]2CC[C@@H](OCCO)[C@H](OC)C2)CC(=O)[C@H](C)/C=C(\C)[C@@H](O)[C@@H](OC)C(=O)[C@H](C)C[C@H](C)/C=C/C=C/C=C/1C [Everolimus] (max 10 µM) | 0.307 GR | 0.371 GR | 0.642 GR | 0.576 GR | 0.555 GR | 0.349 GR | 0.724 GR | 0.499 GR | 0.564 GR | 0.226 GR | 0.343 GR |  |  |  |  |  |  |  | 
14 | CCC(=O)Nc1ccc(C(=O)Nc2ccc(Nc3ncc4c(n3)N(C)c3ccc(C)cc3C(=O)N4C)cc2)cc1 [FMF-03-145-1] | 1.12 GR | 0.44 GR | 0.808 GR | 0.626 GR | 0.52 GR | 1 GR | 0.261 GR | 0.602 GR | 0.957 GR | 1.06 GR | 0.389 GR |  |  |  |  |  |  |  | 
15 | COc1cc(N2CCN(C)CC2)ccc1Nc1ncc2c(n1)N(C)c1ccccc1C(=O)N2CC(F)(F)F [FMF-03-146-1] | -0.0674 GR | 0.049 GR | 0.071 GR | 0.0805 GR | 0.163 GR | -0.0612 GR | 0.0393 GR | 0.0146 GR | 0.0454 GR | 0.0104 GR | 0.0546 GR |  |  |  |  |  |  |  | 
16 | CN1CC[C@H](c2c(O)cc(O)c3c(=O)cc(-c4ccccc4Cl)oc23)[C@H](O)C1 [Flavopiridol] (max 1 µM) | 0.341 GR | 0.319 GR | 0.216 GR | 0.3 GR | 0.339 GR | 0.232 GR | 0.225 GR | 0.273 GR | 0.36 GR | 0.3 GR | 0.235 GR |  |  |  |  |  |  |  | 
17 | CC[C@@]1(O)C(=O)OCc2c1cc1n(c2=O)Cc2cc3c(CN(C)C)c(O)ccc3nc2-1 [Topotecan] (max 10 µM) | 0.867 GR | 0.873 GR | 1.07 GR | 0.843 GR | 1.08 GR |  | 0.99 GR |  | 0.854 GR |  | 0.904 GR |  |  |  |  |  |  |  | 
